Assay results as given in patent publication US20100152434A1, “Protein Kinase-binding Nucleosides and Associated Methods” (priority 2007, published 2010).

Tests used:
[1] = target: BTK (Homo sapiens, UniProt Q06187); assay: SignalChem radioisotope protein kinase assay; type: biochemical; set-up: host or cells: T7 phage in an E. coli BL21-derived host; settings: 5 μl of 100 μM stock solution in 25 μl
Description: The various protein kinase targets to be employed in the kinase profiling assay were cloned, expressed and purified in-house at SignalChem (Richmond, BC, Canada) using proprietary methods. Quality control testing is routinely performed on each of the SignalChem targets to ensure compliance to acceptable standards. Protein substrates employed in the target profiling process were synthesized internally. ^33P-ATP was purchased from PerkinElmer. All other materials were of standard grade. Compound 10 (FIG. 4) was supplied to SignalChem in a powder form. It was reconstituted in DMSO to form a stock solution which was then diluted with 10% DMSO to form a working stock solution (100 μM) that was then profiled against the various protein kinase targets. The assay conditions for the various protein kinase targets were optimized to yield acceptable enzymatic activity. In addition, the assays were optimized to give high signal-to-noise ratio. […]
The assay was initiated by the addition of ^33P-ATP and the reaction mixture incubated at ambient temperature for 20-40 minutes, depending on the protein kinase target. […] The radioactivity on the P81 plate was counted in the presence of scintillation fluid in a Trilux scintillation counter. […] The corrected activity for each protein kinase target was determined by removing the blank control value.

[2] = target: FLT3 (Homo sapiens, UniProt P36888); assay: Ambit kinase phage display ATP-binding-site ligand binding assay; settings: read-out: % Inhibition of binding to ATP-binding-site ligand
Description: (§1) This assay is based on ligand-affinity/protein kinase phage display and was employed essentially as described by Fabian et. al [Nature Biotech. […] In this assay, protein kinases are cloned into T7 bacteriophage which express the kinase fusion proteins on the phage capsid. T7 kinase-tagged phage are then screened for binding to ATP-binding-site ligands that have been immobilized on a solid support. Phage are screened for binding to the anchored ligands both in the presence of test compound and in its absence (control). Elution of the bound phage by free ligand (ATP-binding site ligand that is not immobilized on a solid support) followed by determination of the phage titre provides a reliable measure of the ability of test compounds to block binding of target kinases to resin-bound ATP-binding-site ligands.
(§2) T7 kinase-tagged phage strains were grown in parallel in microtiter plates in a proprietary bacterial host derived from E. Coli strain BL21. E. Coli were grown to a log phase, infected with T7 kinase-tagged phage, and incubated while shaking at 32° C. until bacterial lysis (approx. 90 min). Lysates were centrifuged (6,000 g) and filtered (0.2 μm). […] The phage titre of the eluates was measured by quantitative PCR or by plaque assays. […]

[3] = target: MARK3 (Homo sapiens, UniProt P27448); assay: as above; settings: read-out: % Inhibition of binding to ATP-binding-site ligand
Description: (§3) In this assay, protein kinases are cloned into T7 bacteriophage which express the kinase fusion proteins on the phage capsid. T7 kinase-tagged phage are then screened for binding to ATP-binding-site ligands that have been immobilized on a solid support. Phage are screened for binding to the anchored ligands both in the presence of test compound and in its absence (control). Elution of the bound phage by free ligand (ATP-binding site ligand that is not immobilized on a solid support) followed by determination of the phage titre provides a reliable measure of the ability of test compounds to block binding of target kinases to resin-bound ATP-binding-site ligands.
(§4) T7 kinase-tagged phage strains were grown in parallel in microtiter plates in a proprietary bacterial host derived from E. Coli strain BL21. E. Coli were grown to a log phase, infected with T7 kinase-tagged phage, and incubated while shaking at 32° C. until bacterial lysis (approx. 90 min). Lysates were centrifuged (6,000 g) and filtered (0.2 μm). Small molecule ATP-binding-site-specific ligands were anchored to solid supports via a two step process beginning with biotin conjugation followed by treatment of the biotin/small molecule conjugate with streptavidin-coated magnetic beads. […] The phage titre of the eluates was measured by quantitative PCR or by plaque assays. […]

[4] = system: ABL1(F317); assay: as above; settings: 10 μM
Description: as §3, §4

[5] = target: SNF1LK (Homo sapiens, UniProt P57059); assay: as above; settings: read-out: percent inhibition of binding
Description: as §3, §4

[6] = target: MLK1 (Homo sapiens, UniProt P80192); assay: as above; settings: read-out: percent inhibition of binding
Description: as §3, §4

[7] = target: BMPR2 (Homo sapiens, UniProt Q13873); assay: as above; settings: read-out: percent inhibition of binding
Description: as §1, §2

[8] = target: HCK (Homo sapiens, UniProt P08631); assay: as above; settings: read-out: percent inhibition of binding
Description: as §1, §2

[9] = target: RPS6KA6(kin.Dom.2) (Homo sapiens, UniProt Q9UK32); assay: as above; settings: read-out: percent inhibition of binding
Description: as §1, §2

[10] = target: AURKB (Homo sapiens, UniProt Q96GD4); assay: as above; settings: read-out: percent inhibition of binding
Sequence of AURKB (Q96GD4 whole entry): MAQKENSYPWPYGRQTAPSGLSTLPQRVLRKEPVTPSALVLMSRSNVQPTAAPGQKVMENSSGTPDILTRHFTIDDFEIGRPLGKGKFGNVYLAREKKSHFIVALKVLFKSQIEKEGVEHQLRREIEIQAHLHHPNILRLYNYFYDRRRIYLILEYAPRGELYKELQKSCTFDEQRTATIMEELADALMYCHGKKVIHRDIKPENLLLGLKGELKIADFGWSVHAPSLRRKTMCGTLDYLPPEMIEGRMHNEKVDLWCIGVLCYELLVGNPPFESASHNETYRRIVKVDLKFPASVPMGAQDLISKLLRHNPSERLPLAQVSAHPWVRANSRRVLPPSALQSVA
Description: as §3, §4

Sequence of BTK (Q06187 whole entry, species assumed): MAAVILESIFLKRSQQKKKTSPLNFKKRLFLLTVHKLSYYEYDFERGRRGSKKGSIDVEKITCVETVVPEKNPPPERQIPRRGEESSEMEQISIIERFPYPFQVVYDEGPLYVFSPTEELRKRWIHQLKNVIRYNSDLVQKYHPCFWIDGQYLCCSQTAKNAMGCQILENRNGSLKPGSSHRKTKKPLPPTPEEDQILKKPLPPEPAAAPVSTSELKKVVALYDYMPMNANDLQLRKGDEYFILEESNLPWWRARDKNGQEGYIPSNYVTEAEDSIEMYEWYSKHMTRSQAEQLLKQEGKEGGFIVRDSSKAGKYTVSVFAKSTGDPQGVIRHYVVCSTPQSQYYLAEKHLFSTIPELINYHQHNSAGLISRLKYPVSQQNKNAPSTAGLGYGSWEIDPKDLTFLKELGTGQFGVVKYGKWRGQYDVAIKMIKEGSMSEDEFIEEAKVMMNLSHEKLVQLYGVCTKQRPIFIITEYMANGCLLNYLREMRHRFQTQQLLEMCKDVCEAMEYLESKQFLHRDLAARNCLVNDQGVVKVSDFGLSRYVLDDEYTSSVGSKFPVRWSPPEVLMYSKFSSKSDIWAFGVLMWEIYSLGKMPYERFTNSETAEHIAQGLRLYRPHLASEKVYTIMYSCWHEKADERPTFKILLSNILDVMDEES
Sequence of RPS6KA6(kin.Dom.2) (Q9UK32 426-683 limits assumed): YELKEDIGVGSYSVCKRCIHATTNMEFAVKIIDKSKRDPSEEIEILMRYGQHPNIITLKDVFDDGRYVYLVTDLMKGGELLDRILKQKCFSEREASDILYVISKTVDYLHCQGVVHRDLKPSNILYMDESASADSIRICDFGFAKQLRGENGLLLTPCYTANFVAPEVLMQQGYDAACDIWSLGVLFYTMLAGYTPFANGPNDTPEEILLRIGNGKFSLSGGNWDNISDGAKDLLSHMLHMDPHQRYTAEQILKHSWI
Sequence of SNF1LK (P57059 whole entry): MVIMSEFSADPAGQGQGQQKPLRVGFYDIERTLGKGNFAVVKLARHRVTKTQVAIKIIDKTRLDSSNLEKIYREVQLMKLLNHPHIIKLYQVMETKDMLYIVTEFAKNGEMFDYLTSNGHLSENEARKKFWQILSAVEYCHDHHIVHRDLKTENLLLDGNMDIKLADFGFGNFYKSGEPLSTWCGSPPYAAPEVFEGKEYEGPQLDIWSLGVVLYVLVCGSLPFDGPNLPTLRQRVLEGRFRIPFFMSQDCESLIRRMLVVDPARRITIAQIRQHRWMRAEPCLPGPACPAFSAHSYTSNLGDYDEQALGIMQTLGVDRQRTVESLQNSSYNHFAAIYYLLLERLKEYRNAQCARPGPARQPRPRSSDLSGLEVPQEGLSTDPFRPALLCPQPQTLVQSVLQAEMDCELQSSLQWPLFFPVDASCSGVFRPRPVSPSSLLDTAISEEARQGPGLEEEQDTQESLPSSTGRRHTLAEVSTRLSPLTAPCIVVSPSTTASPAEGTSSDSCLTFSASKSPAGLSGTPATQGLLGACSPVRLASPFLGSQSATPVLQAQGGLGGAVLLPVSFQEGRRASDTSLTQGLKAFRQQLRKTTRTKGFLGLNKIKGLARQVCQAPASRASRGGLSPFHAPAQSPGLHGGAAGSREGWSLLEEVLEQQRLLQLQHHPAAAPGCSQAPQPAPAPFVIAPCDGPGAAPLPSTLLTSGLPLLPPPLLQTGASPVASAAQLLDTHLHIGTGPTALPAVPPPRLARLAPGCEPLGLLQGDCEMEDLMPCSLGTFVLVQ
Sequence of BMPR2 (Q13873 27-1038): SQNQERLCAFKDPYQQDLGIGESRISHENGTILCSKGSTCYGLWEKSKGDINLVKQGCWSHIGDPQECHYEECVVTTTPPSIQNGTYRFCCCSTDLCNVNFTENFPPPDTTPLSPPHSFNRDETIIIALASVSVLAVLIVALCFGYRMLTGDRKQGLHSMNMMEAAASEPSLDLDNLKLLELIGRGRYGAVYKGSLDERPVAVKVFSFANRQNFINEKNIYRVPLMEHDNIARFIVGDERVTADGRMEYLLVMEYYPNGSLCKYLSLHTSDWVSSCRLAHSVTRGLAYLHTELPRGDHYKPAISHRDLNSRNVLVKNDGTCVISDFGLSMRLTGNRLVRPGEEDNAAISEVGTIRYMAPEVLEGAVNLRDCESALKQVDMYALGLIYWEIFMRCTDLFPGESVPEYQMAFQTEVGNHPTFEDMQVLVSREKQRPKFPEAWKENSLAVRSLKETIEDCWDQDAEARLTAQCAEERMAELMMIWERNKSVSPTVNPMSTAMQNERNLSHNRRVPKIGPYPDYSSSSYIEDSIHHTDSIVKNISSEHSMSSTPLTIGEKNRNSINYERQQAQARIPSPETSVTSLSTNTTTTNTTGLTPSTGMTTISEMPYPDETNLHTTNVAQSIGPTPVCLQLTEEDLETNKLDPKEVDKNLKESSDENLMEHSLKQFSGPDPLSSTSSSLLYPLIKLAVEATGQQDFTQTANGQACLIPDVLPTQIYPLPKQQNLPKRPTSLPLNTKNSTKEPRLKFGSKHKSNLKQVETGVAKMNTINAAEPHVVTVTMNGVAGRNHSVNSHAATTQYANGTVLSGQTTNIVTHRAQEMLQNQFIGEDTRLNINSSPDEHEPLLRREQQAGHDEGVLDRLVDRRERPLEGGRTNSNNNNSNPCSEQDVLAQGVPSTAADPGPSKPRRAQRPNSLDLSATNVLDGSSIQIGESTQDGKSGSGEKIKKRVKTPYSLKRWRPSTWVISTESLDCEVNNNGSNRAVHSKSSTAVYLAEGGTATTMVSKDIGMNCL
Sequence of MLK1 (P80192 whole entry): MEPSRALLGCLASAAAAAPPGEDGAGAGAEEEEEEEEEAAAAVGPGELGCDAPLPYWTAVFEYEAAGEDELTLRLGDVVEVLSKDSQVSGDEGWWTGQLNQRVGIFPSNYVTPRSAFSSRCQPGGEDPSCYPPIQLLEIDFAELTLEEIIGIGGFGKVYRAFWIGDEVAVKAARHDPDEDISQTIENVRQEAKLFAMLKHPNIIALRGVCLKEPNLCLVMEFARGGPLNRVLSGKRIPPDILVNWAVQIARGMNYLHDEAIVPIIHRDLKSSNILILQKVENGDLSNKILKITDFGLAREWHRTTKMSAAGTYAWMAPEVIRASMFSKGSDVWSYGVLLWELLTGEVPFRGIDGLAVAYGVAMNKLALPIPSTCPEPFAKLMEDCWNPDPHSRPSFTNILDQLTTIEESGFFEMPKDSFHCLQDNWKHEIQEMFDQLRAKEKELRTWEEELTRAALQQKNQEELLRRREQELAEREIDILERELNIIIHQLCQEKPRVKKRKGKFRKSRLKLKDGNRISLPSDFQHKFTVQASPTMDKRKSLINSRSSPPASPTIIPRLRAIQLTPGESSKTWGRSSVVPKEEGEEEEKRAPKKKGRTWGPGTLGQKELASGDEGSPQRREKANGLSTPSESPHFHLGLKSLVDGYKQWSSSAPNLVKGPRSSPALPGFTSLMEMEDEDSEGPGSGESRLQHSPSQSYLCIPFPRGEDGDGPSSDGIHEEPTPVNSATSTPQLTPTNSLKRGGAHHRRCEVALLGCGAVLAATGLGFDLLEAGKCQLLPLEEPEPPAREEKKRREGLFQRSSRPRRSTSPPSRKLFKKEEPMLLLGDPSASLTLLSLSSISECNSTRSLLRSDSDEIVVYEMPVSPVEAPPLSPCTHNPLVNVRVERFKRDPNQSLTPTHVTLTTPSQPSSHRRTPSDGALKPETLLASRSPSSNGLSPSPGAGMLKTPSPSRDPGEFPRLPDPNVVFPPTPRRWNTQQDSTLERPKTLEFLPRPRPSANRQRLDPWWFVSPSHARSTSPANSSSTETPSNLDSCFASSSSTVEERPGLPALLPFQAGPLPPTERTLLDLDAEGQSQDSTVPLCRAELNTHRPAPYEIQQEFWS
Sequence of HCK (P08631 whole entry, species assumed): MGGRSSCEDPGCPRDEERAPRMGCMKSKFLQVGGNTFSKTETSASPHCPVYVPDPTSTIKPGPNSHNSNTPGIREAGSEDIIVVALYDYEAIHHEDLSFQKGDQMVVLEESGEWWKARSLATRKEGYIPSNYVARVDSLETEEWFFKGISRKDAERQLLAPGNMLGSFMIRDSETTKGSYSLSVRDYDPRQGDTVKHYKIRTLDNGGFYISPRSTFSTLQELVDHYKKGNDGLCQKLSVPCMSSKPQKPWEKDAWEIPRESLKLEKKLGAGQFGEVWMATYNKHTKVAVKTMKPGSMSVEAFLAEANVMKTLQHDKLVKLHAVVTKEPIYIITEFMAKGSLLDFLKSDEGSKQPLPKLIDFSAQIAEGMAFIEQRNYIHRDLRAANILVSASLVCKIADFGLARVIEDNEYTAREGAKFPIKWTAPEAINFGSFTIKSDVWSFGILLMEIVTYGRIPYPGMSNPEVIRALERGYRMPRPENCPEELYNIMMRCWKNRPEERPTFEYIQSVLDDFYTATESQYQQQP

CCOC(=O)C[C@@H]1C(O[Si](C)(C)C(C)(C)C)[C@H](n2cnc3c(NC(=O)Nc4ccccc4)ncnc32)O[C@@H]1CNC(=O)NC (stereo partly shown) [Compound 10]
% Activity Change [1]: 10%
inhibition at 10 µM [2]: 31%
inhibition at 10 µM [3]: 34%
percent inhibition of binding [4]: 20-29%
inhibition at 10 µM [5]: 20 to 29%
inhibition at 10 µM [6]: 20 to 29%
inhibition at 10 µM [7]: 20 to 29%
inhibition at 10 µM [8]: 20 to 29%
inhibition at 10 µM [9]: 20 to 29%
inhibition at 10 µM [10]: 20 to 29%
